Measurements: the NIST ThermoML archive (doi:10.1021/je400423u)

Test: xn = mol fraction of the nth substance listed
Conditions: 101 kPa, Liquid; for viscosity: Falling or rolling sphere viscometry; for mass density: Vibrating tube method

CC(C)(C)O [2-methylpropan-2-ol] + CCC(C)O
Conditions	mass density [kg/m3]	viscosity [mPa·s]
308.15 K, x2 = 0	770.36	2.589
308.15 K, x2 = 0.1002	772.862	2.511
308.15 K, x2 = 0.2001	775.563	2.462
308.15 K, x2 = 0.3008	778.356	2.414
308.15 K, x2 = 0.3999	781.092	2.368
308.15 K, x2 = 0.5005	783.761	2.322
308.15 K, x2 = 0.6004	786.229	2.278
308.15 K, x2 = 0.6999	788.492	2.237
308.15 K, x2 = 0.8009	790.567	2.199
308.15 K, x2 = 0.8998	792.397	2.168
313.15 K, x2 = 0	765.07	2.089
313.15 K, x2 = 0.1002	767.728	2.032
313.15 K, x2 = 0.2001	770.539	2.001
313.15 K, x2 = 0.3008	773.423	1.97
313.15 K, x2 = 0.3999	776.226	1.941
313.15 K, x2 = 0.5005	778.999	1.912
313.15 K, x2 = 0.6004	781.558	1.886
313.15 K, x2 = 0.6999	783.915	1.863
313.15 K, x2 = 0.8009	786.091	1.843
313.15 K, x2 = 0.8998	787.978	1.828
318.15 K, x2 = 0	759.67	1.69
318.15 K, x2 = 0.1002	762.547	1.671
318.15 K, x2 = 0.2001	765.501	1.651
318.15 K, x2 = 0.3008	768.478	1.632
318.15 K, x2 = 0.3999	771.356	1.613
318.15 K, x2 = 0.5005	774.194	1.596
318.15 K, x2 = 0.6004	776.85	1.581
318.15 K, x2 = 0.6999	779.306	1.569
318.15 K, x2 = 0.8009	781.558	1.56
318.15 K, x2 = 0.8998	783.501	1.554
323.15 K, x2 = 0	754.19	1.409
323.15 K, x2 = 0.1002	757.329	1.393
323.15 K, x2 = 0.2001	760.468	1.382
323.15 K, x2 = 0.3008	763.574	1.371
323.15 K, x2 = 0.3999	766.546	1.36
323.15 K, x2 = 0.5005	769.452	1.351
323.15 K, x2 = 0.6004	772.176	1.343
323.15 K, x2 = 0.6999	774.689	1.338
323.15 K, x2 = 0.8009	776.998	1.334
323.15 K, x2 = 0.8998	778.948	1.333
328.15 K, x2 = 0	748.62	–
328.15 K, x2 = 0.1002	752.053	1.178
328.15 K, x2 = 0.2001	755.328	1.171
328.15 K, x2 = 0.3008	758.481	1.164
328.15 K, x2 = 0.3999	761.481	1.158
328.15 K, x2 = 0.5005	764.427	1.154
328.15 K, x2 = 0.6004	767.214	1.151
328.15 K, x2 = 0.6999	769.823	1.15
328.15 K, x2 = 0.8009	772.229	1.15
328.15 K, x2 = 0.8998	774.252	1.153
333.15 K, x2 = 0	742.95	–
333.15 K, x2 = 0.1002	746.671	1.007
333.15 K, x2 = 0.2001	750.068	1.003
333.15 K, x2 = 0.3008	753.262	0.9994
333.15 K, x2 = 0.3999	756.271	0.9962
333.15 K, x2 = 0.5005	759.241	0.9947
333.15 K, x2 = 0.6004	762.081	0.9943
333.15 K, x2 = 0.6999	764.795	0.996
333.15 K, x2 = 0.8009	767.312	0.9994
333.15 K, x2 = 0.8998	769.418	1.004
338.15 K, x2 = 0	737.19	–
338.15 K, x2 = 0.1002	741.149	0.8692
338.15 K, x2 = 0.2001	744.63	0.8679
338.15 K, x2 = 0.3008	747.865	0.8665
338.15 K, x2 = 0.3999	750.893	0.8654
338.15 K, x2 = 0.5005	753.913	0.8659
338.15 K, x2 = 0.6004	756.832	0.8678
338.15 K, x2 = 0.6999	759.643	0.8713
338.15 K, x2 = 0.8009	762.272	0.876
338.15 K, x2 = 0.8998	764.451	0.8813
343.15 K, x2 = 0	731.31	–
343.15 K, x2 = 0.1002	735.411	0.7586
343.15 K, x2 = 0.2001	738.998	0.7589
343.15 K, x2 = 0.3008	742.315	0.7593
343.15 K, x2 = 0.3999	745.431	0.7601
343.15 K, x2 = 0.5005	748.529	0.7616
343.15 K, x2 = 0.6004	751.539	0.7648
343.15 K, x2 = 0.6999	754.435	0.769
343.15 K, x2 = 0.8009	757.148	0.7743
343.15 K, x2 = 0.8998	759.383	0.7798
